From ChEMBL document CHEMBL6071142, “Isoalantolactone/hydroxamic acid hybrids as potent dual STAT3/HDAC inhibitors and self-assembled nanoparticles for cancer therapy” (Eur J Med Chem, 2024)
Calls of active or inactive are those of the source. The rule behind the calls is not given here.

How the values were obtained:
[1] = biological target: Signal transducer and activator of transcription 5A (Homo sapiens, UniProt P42229); assay: Binding affinity to STAT5A (unknown origin) assessed as dissociation constant by SPR assay
Sequence of Signal transducer and activator of transcription 5A (P42229 whole entry): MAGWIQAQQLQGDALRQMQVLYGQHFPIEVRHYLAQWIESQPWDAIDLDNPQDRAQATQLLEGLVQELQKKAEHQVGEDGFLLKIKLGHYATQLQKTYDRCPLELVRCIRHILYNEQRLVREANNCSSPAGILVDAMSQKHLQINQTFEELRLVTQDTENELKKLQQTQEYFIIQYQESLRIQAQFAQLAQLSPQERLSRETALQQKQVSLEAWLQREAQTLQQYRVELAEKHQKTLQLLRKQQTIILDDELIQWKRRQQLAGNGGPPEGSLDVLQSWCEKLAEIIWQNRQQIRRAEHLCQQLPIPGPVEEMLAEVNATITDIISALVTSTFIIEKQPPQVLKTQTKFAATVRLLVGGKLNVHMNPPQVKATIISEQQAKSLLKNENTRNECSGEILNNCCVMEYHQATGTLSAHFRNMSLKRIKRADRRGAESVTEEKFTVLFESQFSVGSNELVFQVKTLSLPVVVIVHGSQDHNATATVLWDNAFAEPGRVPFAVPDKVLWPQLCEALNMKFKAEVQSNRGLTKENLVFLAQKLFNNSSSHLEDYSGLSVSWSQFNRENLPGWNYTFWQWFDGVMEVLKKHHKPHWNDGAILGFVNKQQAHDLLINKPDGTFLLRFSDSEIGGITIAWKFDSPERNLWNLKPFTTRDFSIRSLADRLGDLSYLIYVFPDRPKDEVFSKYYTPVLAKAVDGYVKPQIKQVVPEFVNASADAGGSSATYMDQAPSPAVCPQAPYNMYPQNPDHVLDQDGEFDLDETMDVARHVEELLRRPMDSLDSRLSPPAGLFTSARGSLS

A549 [2] = assay: Induction of apoptosis in human A549 cells assessed as early apoptotic cells at 2 uM incubated for 24 hrs by Annexin V-FITC/PI staining based flow cytometric analysis (reference value: 1.53%); format: functional
[3] = Toxicity in female BALB/c nu/nu mouse xenografted with human A549 cells assessed as effect on lung at 5 mg/kg, iv by H and E staining based analysis; format: organism-based; conditions: in vivo
A549 [4] = assay: In vivo antitumor activity against human A549 cells xenografted in female BALB/c nu/nu mouse assessed as Ac-tubulin at 5 mg/kg, iv administered every 3 days for 9 days by Western blotting analysis; format: functional, organism-based; conditions: time 3.0 day
A549 [5] = assay: In vivo antitumor activity against human A549 cells xenografted in female BALB/c nu/nu mouse assessed as tumor volume at 5 mg/kg, iv administered every 3 days using self assembled nanoparticle as source of compound and measured on 18 day relative to control; format: functional; conditions: time 3 day
A549 [6] = assay: Induction of autophagy in human A549 cells transfected with mRFP-GFP-LC3 assessed as increase in yellow puncta at 0.5 uM incubated for 24 hrs by confocal microscopic analysis; format: functional, cell-based
A549 [7] = assay: In vivo antitumor activity against human A549 cells xenografted in female BALB/c nu/nu mouse assessed as tumor volume at 2.5 mg/kg, iv administered every 3 days and measured on 18 day relative to control; format: functional; conditions: time 3 day
[8] = biological target: T1, Signal transducer and activator of transcription 3 (Homo sapiens, UniProt P40763); assay: Inhibition of STAT3 (unknown origin) in human A549 cells incubated for 4 hrs by Cellular thermal shift assay; format: cell-based
T1 sequence (P40763 whole entry): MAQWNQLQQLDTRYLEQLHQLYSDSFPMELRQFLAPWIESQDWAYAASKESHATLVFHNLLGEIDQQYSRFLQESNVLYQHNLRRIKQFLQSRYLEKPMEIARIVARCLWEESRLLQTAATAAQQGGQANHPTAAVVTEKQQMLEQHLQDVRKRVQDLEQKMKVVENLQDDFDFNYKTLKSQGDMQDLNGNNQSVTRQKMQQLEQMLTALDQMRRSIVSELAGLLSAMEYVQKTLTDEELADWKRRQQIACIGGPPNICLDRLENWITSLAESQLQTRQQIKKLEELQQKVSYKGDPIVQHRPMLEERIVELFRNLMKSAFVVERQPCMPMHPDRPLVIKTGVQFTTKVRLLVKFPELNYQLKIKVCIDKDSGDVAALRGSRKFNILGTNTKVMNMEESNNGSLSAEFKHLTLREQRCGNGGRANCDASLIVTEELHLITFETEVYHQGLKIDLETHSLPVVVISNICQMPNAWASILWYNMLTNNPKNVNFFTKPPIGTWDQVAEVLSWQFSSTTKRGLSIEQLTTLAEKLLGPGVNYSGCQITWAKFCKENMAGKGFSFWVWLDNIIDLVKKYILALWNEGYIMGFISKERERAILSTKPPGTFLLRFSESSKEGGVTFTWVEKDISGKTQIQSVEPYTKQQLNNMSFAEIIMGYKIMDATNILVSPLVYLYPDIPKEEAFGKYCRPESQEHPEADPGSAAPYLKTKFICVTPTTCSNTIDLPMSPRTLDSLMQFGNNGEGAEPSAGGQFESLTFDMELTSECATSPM

Histone deacetylase 5 = Histone deacetylase 5 (Homo sapiens, UniProt Q9UQL6); assay: Inhibition of recombinant human HDAC5 using Boc-Lys (trifluroacetyl)-AMC as substrate preincubated with compound for 1 hr followed by substrate addition and measured after 30 mins by microplate reader assay
Sequence of Histone deacetylase 5 (Q9UQL6 whole entry): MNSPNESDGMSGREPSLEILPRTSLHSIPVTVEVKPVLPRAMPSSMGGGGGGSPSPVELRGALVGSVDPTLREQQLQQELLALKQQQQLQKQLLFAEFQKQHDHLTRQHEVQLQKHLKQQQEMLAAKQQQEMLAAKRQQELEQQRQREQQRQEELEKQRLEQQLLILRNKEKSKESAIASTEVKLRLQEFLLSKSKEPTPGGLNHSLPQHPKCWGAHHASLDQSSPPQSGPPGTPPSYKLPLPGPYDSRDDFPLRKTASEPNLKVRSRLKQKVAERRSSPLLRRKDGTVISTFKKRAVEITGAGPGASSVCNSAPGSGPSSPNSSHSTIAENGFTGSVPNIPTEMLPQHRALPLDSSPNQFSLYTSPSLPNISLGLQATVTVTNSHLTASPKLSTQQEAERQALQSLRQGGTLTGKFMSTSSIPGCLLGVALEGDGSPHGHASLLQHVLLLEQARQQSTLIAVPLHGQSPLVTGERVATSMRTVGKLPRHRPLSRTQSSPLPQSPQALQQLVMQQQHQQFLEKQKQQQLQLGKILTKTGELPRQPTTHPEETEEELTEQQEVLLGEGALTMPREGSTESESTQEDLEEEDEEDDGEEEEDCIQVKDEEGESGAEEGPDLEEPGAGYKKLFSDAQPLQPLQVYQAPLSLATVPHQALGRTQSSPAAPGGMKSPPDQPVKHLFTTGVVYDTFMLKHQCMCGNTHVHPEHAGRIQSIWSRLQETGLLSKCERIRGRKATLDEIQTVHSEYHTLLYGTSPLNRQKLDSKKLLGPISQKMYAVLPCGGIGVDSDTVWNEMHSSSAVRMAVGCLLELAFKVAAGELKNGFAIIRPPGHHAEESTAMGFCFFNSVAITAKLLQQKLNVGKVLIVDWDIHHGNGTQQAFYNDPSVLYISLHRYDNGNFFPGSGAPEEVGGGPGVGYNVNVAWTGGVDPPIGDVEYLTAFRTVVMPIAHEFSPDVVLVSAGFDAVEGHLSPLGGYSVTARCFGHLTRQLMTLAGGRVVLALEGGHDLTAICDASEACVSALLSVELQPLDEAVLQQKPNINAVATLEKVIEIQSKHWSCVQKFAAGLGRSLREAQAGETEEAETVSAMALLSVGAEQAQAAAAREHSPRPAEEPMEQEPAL

A549 [9] = assay: Induction of apoptosis in human A549 cells assessed as late apoptotic cells at 4 uM incubated for 24 hrs by Annexin V-FITC/PI staining based flow cytometric analysis (reference value: 2.18%); format: functional
Histone deacetylase 4 = Histone deacetylase 4 (Homo sapiens, UniProt P56524); assay: Inhibition of recombinant human HDAC4 using Boc-Lys (trifluroacetyl)-AMC as substrate preincubated with compound for 1 hr followed by substrate addition and measured after 30 mins by microplate reader assay
Sequence of Histone deacetylase 4 (P56524 whole entry): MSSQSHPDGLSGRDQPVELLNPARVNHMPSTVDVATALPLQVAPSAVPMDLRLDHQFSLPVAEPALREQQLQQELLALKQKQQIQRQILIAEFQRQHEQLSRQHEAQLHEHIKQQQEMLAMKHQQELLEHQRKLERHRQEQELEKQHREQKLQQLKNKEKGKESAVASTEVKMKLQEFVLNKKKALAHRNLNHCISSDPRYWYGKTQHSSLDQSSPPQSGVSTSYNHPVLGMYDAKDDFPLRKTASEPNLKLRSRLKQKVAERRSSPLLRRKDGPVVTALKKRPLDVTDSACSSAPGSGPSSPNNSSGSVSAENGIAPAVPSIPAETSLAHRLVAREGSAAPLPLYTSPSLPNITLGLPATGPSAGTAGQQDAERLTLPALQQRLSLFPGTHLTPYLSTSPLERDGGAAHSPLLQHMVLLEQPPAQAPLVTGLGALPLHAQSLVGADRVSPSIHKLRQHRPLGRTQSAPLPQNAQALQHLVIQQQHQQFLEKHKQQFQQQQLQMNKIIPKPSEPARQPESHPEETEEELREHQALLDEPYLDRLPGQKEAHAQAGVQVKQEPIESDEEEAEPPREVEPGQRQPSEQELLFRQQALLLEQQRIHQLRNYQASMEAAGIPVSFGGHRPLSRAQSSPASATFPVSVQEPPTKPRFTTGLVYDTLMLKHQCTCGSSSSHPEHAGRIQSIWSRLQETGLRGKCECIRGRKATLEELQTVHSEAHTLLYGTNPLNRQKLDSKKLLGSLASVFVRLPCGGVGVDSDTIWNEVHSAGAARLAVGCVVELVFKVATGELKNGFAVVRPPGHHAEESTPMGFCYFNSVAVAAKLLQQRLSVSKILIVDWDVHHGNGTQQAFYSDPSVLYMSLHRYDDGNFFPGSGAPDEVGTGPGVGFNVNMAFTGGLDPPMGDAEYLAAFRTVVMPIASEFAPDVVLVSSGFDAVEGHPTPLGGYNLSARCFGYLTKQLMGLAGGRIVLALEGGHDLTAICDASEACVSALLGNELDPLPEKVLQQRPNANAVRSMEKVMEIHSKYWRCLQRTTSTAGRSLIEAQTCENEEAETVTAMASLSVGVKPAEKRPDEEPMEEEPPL

A549 [10] = assay: Induction of apoptosis in human A549 cells at 2 uM incubated for 24 hrs by Annexin V-FITC/PI staining based flow cytometric analysis; format: functional
[11] = Drug uptake in tumor of nude mouse xenografted with A549 cells assessed as accumulation of tumor tissues at 5 mg/kg, iv using self assembled nanoparticle as source of compound by LC-MS/MS analysis; format: ADME, organism-based; conditions: in vivo
[12] = biological target: T1, Signal transducer and activator of transcription 3; assay: Binding affinity to recombinant human STAT3 using 5-FAM-G(pTyr)LPQTV-NH2 as substrate preincubated with compound for 1 hr followed by substrate addition and measured after 30 mins by fluorescent polarization based binding assay
Histone deacetylase 2 = Histone deacetylase 2 (Homo sapiens, UniProt Q92769); assay: Inhibition of recombinant human HDAC2 using Boc-Lys (acetyl)-AMC as substrate preincubated with compound for 1 hr followed by substrate addition and measured after 30 mins by microplate reader assay
A549 [13] = assay: Induction of apoptosis in human A549 cells assessed as early apoptotic cells at 4 uM incubated for 24 hrs by Annexin V-FITC/PI staining based flow cytometric analysis (reference value: 1.53%); format: functional
A549 [14] = assay: Induction of autophagy in human A549 cells transfected with mRFP-GFP-LC3 assessed as increase in LC3-II protein level at 0.5 uM incubated for 12 hrs by Western blot analysis; format: functional, cell-based
[15] = Toxicity in female BALB/c nu/nu mouse xenografted with human A549 cells assessed as effect on kidney at 2.5 mg/kg, iv by H and E staining based analysis; format: organism-based; conditions: in vivo
[16] = Toxicity in female BALB/c nu/nu mouse xenografted with human A549 cells assessed as effect on body weight at 5 mg/kg, iv and measured regularly; format: organism-based; conditions: in vivo
Histone deacetylase 1 = Histone deacetylase 1 (Homo sapiens, UniProt Q13547); assay: Inhibition of recombinant human HDAC1 using Boc-Lys (acetyl)-AMC as substrate preincubated with compound for 1 hr followed by substrate addition and measured after 30 mins by microplate reader assay
Sequence of Histone deacetylase 1 (Q13547 whole entry): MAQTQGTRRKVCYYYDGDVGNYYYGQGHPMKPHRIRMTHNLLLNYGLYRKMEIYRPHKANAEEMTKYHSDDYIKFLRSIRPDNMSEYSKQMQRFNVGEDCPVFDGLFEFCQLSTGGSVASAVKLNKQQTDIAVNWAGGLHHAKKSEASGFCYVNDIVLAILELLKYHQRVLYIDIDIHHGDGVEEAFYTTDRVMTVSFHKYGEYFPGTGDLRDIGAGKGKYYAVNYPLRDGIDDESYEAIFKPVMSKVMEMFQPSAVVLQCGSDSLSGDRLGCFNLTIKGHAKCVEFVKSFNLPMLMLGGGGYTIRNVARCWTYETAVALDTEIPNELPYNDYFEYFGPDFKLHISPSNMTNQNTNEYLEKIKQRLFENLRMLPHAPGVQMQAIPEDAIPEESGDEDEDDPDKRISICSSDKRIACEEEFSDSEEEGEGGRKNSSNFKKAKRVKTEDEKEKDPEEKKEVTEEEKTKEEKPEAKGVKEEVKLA

A549 [17] = assay: Induction of apoptosis in human A549 cells assessed as viable cells at 4 uM incubated for 24 hrs by Annexin V-FITC/PI staining based flow cytometric analysis (reference value: 95.08%); format: functional; conditions: read-out: Activity
[18] = Drug accumulation in tumor of nude mouse xenografted with A549 cells assessed as increase in fluorescence at 5 mg/kg, iv using chlorine e6 loaded self assembled nanoparticle as source of compound by in vivo fluorescence imaging
A549 [19] = assay: Induction of apoptosis in human A549 cells at 4 uM incubated for 24 hrs by Annexin V-FITC/PI staining based flow cytometric analysis; format: functional
A549 [20] = assay: Induction of autophagy in human A549 cells transfected with mRFP-GFP-LC3 assessed as increase in red puncta at 0.5 uM incubated for 24 hrs by confocal microscopic analysis; format: functional, cell-based
[21] = biological target: Signal transducer and activator of transcription 6 (Homo sapiens, UniProt P42226); assay: Binding affinity to STAT6 (unknown origin) assessed as dissociation constant by SPR assay
[22] = biological target: Signal transducer and activator of transcription 1-alpha/beta (Homo sapiens, UniProt P42224); assay: Binding affinity to STAT1 (unknown origin) assessed as dissociation constant by SPR assay
Sequence of Signal transducer and activator of transcription 1-alpha/beta (P42224 whole entry): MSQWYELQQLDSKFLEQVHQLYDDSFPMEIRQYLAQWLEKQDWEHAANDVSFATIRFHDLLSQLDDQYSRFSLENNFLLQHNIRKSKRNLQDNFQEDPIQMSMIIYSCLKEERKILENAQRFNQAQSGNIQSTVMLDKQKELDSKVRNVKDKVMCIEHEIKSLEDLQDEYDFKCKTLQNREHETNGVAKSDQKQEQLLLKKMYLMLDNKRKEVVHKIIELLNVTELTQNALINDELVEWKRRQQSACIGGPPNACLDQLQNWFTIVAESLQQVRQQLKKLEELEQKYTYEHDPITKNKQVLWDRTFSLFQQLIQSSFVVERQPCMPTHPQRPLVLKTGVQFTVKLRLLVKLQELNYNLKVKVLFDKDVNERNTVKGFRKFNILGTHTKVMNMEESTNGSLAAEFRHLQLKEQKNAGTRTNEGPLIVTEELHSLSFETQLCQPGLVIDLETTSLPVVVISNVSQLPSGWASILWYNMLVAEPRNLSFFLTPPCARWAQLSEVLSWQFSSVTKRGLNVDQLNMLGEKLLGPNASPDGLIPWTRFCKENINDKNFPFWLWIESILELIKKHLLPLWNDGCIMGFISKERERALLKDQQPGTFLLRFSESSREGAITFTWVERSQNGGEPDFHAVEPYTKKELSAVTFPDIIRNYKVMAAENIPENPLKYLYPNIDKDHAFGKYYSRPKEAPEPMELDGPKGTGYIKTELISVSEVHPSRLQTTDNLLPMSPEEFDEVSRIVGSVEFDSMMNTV

A549 [23] = assay: Induction of apoptosis in human A549 cells assessed as viable cells at 2 uM incubated for 24 hrs by Annexin V-FITC/PI staining based flow cytometric analysis (reference value: 95.08%); format: functional; conditions: Homo sapiens, A549, read-out: Activity
[24] = biological target: T1, Signal transducer and activator of transcription 3; assay: Binding affinity to STAT3 (unknown origin) assessed as dissociation constant by SPR assay

C=C1C(=O)O[C@@H]2C[C@@]3(C)CC[C@@H](OC(=O)[C@H](C)NC(=O)c4ccc(/C=C/C(=O)NO)cc4)C(=C)[C@@H]3C[C@H]12
Kd [1]: Not Active
Activity (A549 [2]): 4.07%
Activity [3]: Non-Toxic
Activity (A549 [4]): Active
Activity (A549 [5]): 19.9%
Activity (A549 [6]): Active
Activity (A549 [7]): 70.7%
inhibition [8]: Active
IC50 (Histone deacetylase 5): > 10 µM
Activity (A549 [9]): 35.53%
IC50 (Histone deacetylase 4): > 10 µM
Activity (A549 [10]): 15%
Drug uptake [11]: Active
IC50 [12]: 350 nM
Activity ([12]; time 1.5 hrs): Dose-Dependent Effect
IC50 (Histone deacetylase 2): 52.6 nM
Activity (A549 [13]): 5.3%
Activity (A549 [14]): Active
Activity [15]: Non-Toxic
Activity [16]: Non-Toxic
IC50 (Histone deacetylase 1): 62 nM
viability at 4 µM (A549 [17]): 56.2%
Drug uptake [18]: Active
Activity (A549 [19]): 40%
Activity (A549 [20]): Active
Kd [21]: Not Active
Kd [22]: Not Active
viability at 2 µM (A549 [23]): 82.5%
Kd [24]: 2520 nM
